“Also recorded” adds a separate entry of the source. Ends that are not written are not given here.
What was measured:
[1] = system: rat pituitary cell cultures; assay: Intracellular cAMP accumulation in cultured pituitary cells; type: cell-based; conditions: temporal changes, concentration not given
Text: FIG. 6a. Intracellular cAMP accumulation in cultured pituitary cells.
We also determined temporal changes in intracellular cAMP levels in rat pituitary cell cultures.

adenylate cyclase = conditions: rat pituitary cell cultures
Experimental: Primary monolayer rat anterior pituitary cell culture was prepared as described previously (Culler et al., 1984). Anterior pituitaries from CD strain female rats of approximately 200 g bw (Charles River Breeding Labs, Wilmington, Mass.) at a random stage of estrous cycle were enzymatically dispersed with collagenase Type II and DNAse II. Dispersed cells were collected by centrifugation and washed three times with HEPES buffer and finally suspended in Dulbecco,s modified Eagle's medium (DMEM) containing 10% horse serum, 2.5% fetal calf serum and 1% antibiotic antimycotic solution (Gibco/Life Technologies, Grand Isle, NY) The cells are plated in 24-multiwell tissue culture plates (Falcon, Oxnard, Calif.) at a density of 1.5×10^5 cells/ml/well, and then incubated at 37° C. in a water-saturated atmosphere of 95% air 5% CO2 for 4 days. Prior to acute stimulation, cultured cells were incubated for 3 hr in serum-free DMEM with two changes of the medium. The cells were then incubated for 3 hr in 0.5 ml of HEPES-buffered DMEM containing test materials. Ascorbic acid (2.5×10^-4 M) and 0.25% BSA were routinely added to the medium during assay incubation in order to prevent possible oxidation and adsorption of test samples. […]
Cyclic AMP in the culture media was determined by RIA as described by Harper and Brooker (J. Cyclic Nucleo. Res. 1:207, 1975). […]

arterial blood pressure = assay: Determination of depressor activity (arterial blood pressure) in urethane-anesthetized rats; type: in vivo, rat; conditions: for vasodepressor activity: urethane-anaesthetized rats, dose range 0.33 nmole to 1.0 nmole
Experimental: Arterial blood pressure was measured in urethane (150 mg/100 g ip) anesthetized adult male rats. Polyethylene tubing (PE50) which was connected with a pressure transducer P-1000 B (Narco Bio-Systems) was inserted into the femoral artery. Blood pressure was recorded using Narcotrace 40. Another polyethylene tube (PE50) was inserted into a femoral vein for injection of test materials dissolved in 0.5 ml 0.9% saline.

astrocytes = assay: Intracellular cAMP accumulation in cultured astrocytes; type: cell-based, rat; conditions: for intracellular cAMP response in astrocytes: 10^-9 M added to culture medium
Experimental: FIG. 6b. Intracellular cAMP accumulation in cultured astrocytes.
(§1) For studies on neurons, rat neuronal cell cultures were prepared by the method described by Raizada et al. (Raizada et al. Am. J. Physiol. 247:C364, 1984). Astrocyte cultures were prepared using the single-step transfer method as described by Clarke et al. (Clark et al., J. Biol. Chem. 259:11672, 1984). […] Intracellular cAMP levels remained elevated for at least 60 minutes in astrocytes, but began to decrease after 10 min in neurons.

neurons [2] = assay: Intracellular cAMP accumulation in cultured neurons; type: cell-based, rat; conditions: for intracellular cAMP response in neurons: 10^-9 M added to culture medium
Experimental: FIG. 6c. Intracellular cAMP accumulation in cultured neurons.
as §1

[3] = system: superfused pituitary cells; assay: Superfusion method using rat pituitary cell column: release of pituitary hormones; type: cell-based
Experimental: FIGS. 5A-5D. The effect of synthetic PACAP38 on the release of pituitary hormones from superfused pituitary cells. A pituitary cell superfusion method to determine the hypophysiotropic activity of samples was conducted as reported by Vigh and Schally. The peptide was applied as a 3 min pulse. The numbers at top indicate; 1,7: 100 mM KCl, 2: 10^-10 M PACAP38, 3: 10^-9 M PACAP38, 4: 10^-8 M PACAP38, 5: 10^-7 M PACAP38, 6: 10^-6 M PACAP38. 0.9 ml fractions were collected every 3 min.
A pituitary cell superfusion method to determine the hypophysiotropic activity of samples was conducted as reported by Vigh and Schally (1984). Pituitaries obtained from 3 adult female rats were cut into small pieces and incubated in a Dubnoff incubator for 45 min at 37° C. in 10 ml of oxygenated Medium 199 (Gibco/Life Technologies) containing 0.5% collagenase (Sigma Type I), 0.25% BSA and […] gentamicin sulphate (Sigma). After this incubation, there were no apparent changes in the pituitary tissue, but the fragments could be easily dispersed into single cells by repeated suction and expulsion from a Pasteur pipet. After 30 to 60 pipet operations, the tissue fell apart. The cell suspension was centrifuged at room temperature for 10 min at 100×g. The cell pellet was then resuspended in 1.0 ml medium. A small aliquot was diluted to count the cells, and the remainder of the suspension was divided into 2 equal volumes. Each volume (containing about 5×10^6 cells and usually between 3.5 and 7.0×10^6) was mixed with 0.5 ml Sephadex G-15 which had been equilibrated with previously oxygenated medium. The mixture of pituitary cells and Sephadex was transferred into 2 chambers of the superfusion apparatus and perfused with the medium. The medium was always freshly prepared in a way similar to that for enzymatic dispersion, omitting the collagenase, then passed through a Millipore filter, and continuously gassed with a mixture of O2 (95%) and CO2 (5%) during the experiment. The flow rate of the medium through the superfusion system was controlled by a multichannel pump (Gilson Minipulse Type HP-8) which was placed behind the superfusion chamber; the tuning of the lower plunger was connected to the pump, and from there to a two-channel fraction collector. Thus, the system was operated with negative pressure in order to get fewer fluctuations in the flow rate. Samples were applied as a 3 min pulse followed by the medium superfusion. Superfusate was collected as 3 min fractions, 0.9 ml per fraction.

rat pituitary fragments = conditions: in vitro; Arimura et al. 1984; cited from earlier work
neurons [4] = conditions: De Brenneman et al. 1987, 1988; cited from earlier work
[5] = superfused rat pituitary cells, hormone release

CC[C@H](C)[C@H](NC(=O)CNC(=O)[C@H](CC(=O)O)NC(=O)[C@H](CO)NC(=O)[C@@H](N)Cc1c[nH]cn1)C(=O)N[C@@H](Cc1ccccc1)C(=O)N[C@H](C(=O)N[C@@H](CC(=O)O)C(=O)N[C@@H](CO)C(=O)N[C@@H](Cc1ccc(O)cc1)C(=O)N[C@@H](CO)C(=O)N[C@@H](CCCNC(=N)N)C(=O)N[C@@H](Cc1ccc(O)cc1)C(=O)N[C@@H](CCCNC(=N)N)C(=O)N[C@@H](CCCCN)C(=O)N[C@@H](CCC(N)=O)C(=O)N[C@@H](CCSC)C(=O)N[C@@H](C)C(=O)N[C@H](C(=O)N[C@@H](CCCCN)C(=O)N[C@@H](CCCCN)C(=O)N[C@@H](Cc1ccc(O)cc1)C(=O)N[C@@H](CC(C)C)C(=O)N[C@@H](C)C(=O)N[C@@H](C)C(=O)N[C@H](C(=O)N[C@@H](CC(C)C)C(N)=O)C(C)C)C(C)C)[C@@H](C)O [PACAP27NH2]
intracellular cAMP accumulation (extent and pattern) [1]: comparable extent and pattern of cAMP accumulation
ACSA activity compared with native PACAP38 (adenylate cyclase; cAMP in medium after 3 hr incubation): similar, if not greater

CC[C@H](C)[C@H](NC(=O)CNC(=O)[C@H](CC(=O)O)NC(=O)[C@H](CO)NC(=O)[C@@H](N)Cc1c[nH]cn1)C(=O)N[C@@H](Cc1ccccc1)C(=O)N[C@H](C(=O)N[C@@H](CC(=O)O)C(=O)N[C@@H](CO)C(=O)N[C@@H](Cc1ccc(O)cc1)C(=O)N[C@@H](CO)C(=O)N[C@@H](CCCNC(=N)N)C(=O)N[C@@H](Cc1ccc(O)cc1)C(=O)N[C@@H](CCCNC(=N)N)C(=O)N[C@@H](CCCCN)C(=O)N[C@@H](CCC(N)=O)C(=O)N[C@@H](CCSC)C(=O)N[C@@H](C)C(=O)N[C@H](C(=O)N[C@@H](CCCCN)C(=O)N[C@@H](CCCCN)C(=O)N[C@@H](Cc1ccc(O)cc1)C(=O)N[C@@H](CC(C)C)C(=O)N[C@@H](C)C(=O)N[C@@H](C)C(=O)N[C@H](C(=O)N[C@@H](CC(C)C)C(=O)NCC(=O)N[C@@H](CCCCN)C(=O)N[C@@H](CCCNC(=N)N)C(=O)N[C@@H](Cc1ccc(O)cc1)C(=O)N[C@@H](CCCCN)C(=O)N[C@@H](CCC(N)=O)C(=O)N[C@@H](CCCNC(=N)N)C(=O)N[C@H](C(=O)N[C@@H](CCCCN)C(=O)N[C@@H](CC(N)=O)C(=O)N[C@@H](CCCCN)C(N)=O)C(C)C)C(C)C)C(C)C)[C@@H](C)O [PACAP38]
depressor activity (arterial blood pressure; anesthetized rats, injection into femoral vein): significant, but somewhat weaker
vasodepressor activity (arterial blood pressure): comparable vasodepressor activity
time intracellular cAMP levels remained elevated, astrocytes (astrocytes; 10^-9 M): at least 60 minutes
time of first cAMP increase after addition, astrocytes (astrocytes; 10^-9 M): as early as one minute
intracellular cAMP response in astrocytes (astrocytes): extraordinarily large
intracellular cAMP accumulation (extent and pattern) [1]: comparable extent and pattern of cAMP accumulation
time after which intracellular cAMP began to decrease, neurons (neurons [2]; 10^-9 M): 10 min
time of first cAMP increase after addition, neurons (neurons [2]; 10^-9 M): as early as one minute
intracellular cAMP response in neurons (neurons [2]): increased intracellular cAMP
adenylate cyclase stimulating activity relative to VIP (adenylate cyclase; fold of VIP): at least 100 times
FSH release ([3]; 3 min pulse, 10^-10 to 10^-6 M): not altered; also recorded: not apparent
LH release ([3]; 3 min pulse, 10^-10 to 10^-6 M): LH response was linear
TSH release ([3]; 3 min pulse, 10^-10 to 10^-6 M): not altered; also recorded: not apparent
dose of maximum effect (bell-shaped dose response curve) [3, 5]: 10^-8 M
minimum effective dose [3, 5]: 10^-10 M

growth hormone releasing hormone (YADAIFTNSYRKVLGQLSARKLLQDIMSRQQGESNQERGARARL; ends and bridges not checked; UniProt P01286 32-75, looked up) [GRH]
intracellular cAMP accumulation (extent and pattern) [1]: greatest accumulation of intracellular cAMP

HP: ovine hypothalamic peptide, partial N-terminal sequence His-Ser-Asp-Gly-Ile-Phe-Thr-Asp-Ser-Tyr-Lys-Arg-Tyr-Asn-Lys-Glu-Met-Ala-Lys- (HSDGIFTDSYKRYNKEMAK; printed: His-Ser-Asp-Gly-Ile-Phe-Thr-Asp-Ser-Tyr-Lys-Arg-Tyr-Asn-Lys-Glu-Met-Ala-Lys-)
GH release from rat pituitary fragments (rat pituitary fragments): stimulated GH release

CRH: known hypothalamic releasing hormone (corticotropic releasing hormone) used for comparison (SEEPPISLDLTFHLLREVLEMARAEQLAQQAHSNRKLMEII; ends and bridges not checked; UniProt P06850 154-194, looked up)
intracellular cAMP accumulation (extent and pattern) [1]: comparable extent and pattern of cAMP accumulation

vasoactive intestinal peptide [VIP, reference compound]
protection of neurons from gp120-induced cell death (neurons [4]): capable of protecting neurons from cell death
vasodepressor activity (arterial blood pressure): comparable vasodepressor activity
intracellular cAMP response in astrocytes (astrocytes): did not induce an appreciable stimulation of cAMP
intracellular cAMP accumulation (extent and pattern) [1]: little effect
intracellular cAMP response in neurons (neurons [2]): did not induce an appreciable stimulation of cAMP

— US5128242A, “Hypothalamic polypeptides with adenylate cyclase stimulating activity” (The Administrators of the Tulane Educational Fund, priority 1989, dated 1992)
